Patent JPH07291935A, “スピロ化合物、その製造法および剤” (Takeda Chemical Industries Ltd, priority 1994, dated 1995)
Like-named read-outs stand apart in the source and are kept apart here.

Experiments:
[1] = system: 45Ca2+ uptake [45Ca2+取り込み]; test: 45Ca2+ uptake inhibition (veratrine-stimulated); type: biochemical; details: 10 μM; rat cerebral cortex crude synaptosomes; veratrine 30 μM; 37℃, 10 min
[2] = system: serotonin (5-HT) uptake [セロトニン(5−HT)の取り込み]; test: serotonin (5-HT) uptake inhibition; type: biochemical; details: rat whole brain preparation, 3H-5-HT 10 nM, 37℃, 5 min
[3] = system: norepinephrine (NE) uptake [ノルエピネフリン(NE)の取り込み]; test: norepinephrine (NE) uptake inhibition; type: biochemical; details: rat cerebral cortex, 3H-NE as substrate
[4] = target: T1, type B monoamine oxidase (MAO-B) [B型モノアミン酸化酵素(MAO−B)] (Rattus norvegicus, UniProt P19643); test: biochemical
T1 sequence (P19643 1-520): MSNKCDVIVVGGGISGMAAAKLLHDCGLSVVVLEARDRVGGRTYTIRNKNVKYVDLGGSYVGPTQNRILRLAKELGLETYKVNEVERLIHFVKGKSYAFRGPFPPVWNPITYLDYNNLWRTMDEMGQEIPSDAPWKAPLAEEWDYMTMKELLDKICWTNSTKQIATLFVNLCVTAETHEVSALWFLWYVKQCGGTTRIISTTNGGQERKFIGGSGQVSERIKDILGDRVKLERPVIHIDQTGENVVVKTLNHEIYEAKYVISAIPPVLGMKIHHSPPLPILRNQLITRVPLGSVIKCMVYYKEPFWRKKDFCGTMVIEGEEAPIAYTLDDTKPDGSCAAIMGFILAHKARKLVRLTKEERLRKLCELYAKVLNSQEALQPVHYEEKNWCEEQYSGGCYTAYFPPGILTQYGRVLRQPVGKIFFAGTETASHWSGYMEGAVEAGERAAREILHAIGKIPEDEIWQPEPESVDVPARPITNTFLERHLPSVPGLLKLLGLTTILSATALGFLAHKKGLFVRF

[5] = MAO-B, rat whole brain homogenate, 14C-phenylethylamine 10 μM, 37℃, 5 min, read-out: IC50

## COc1ccc2c(c1)CCC1(CCCCN1CCCc1ccccc1)C2 (centres unmarked) [実施例5−9, 3,4−ジヒドロ−6−メトキシ−1′−(3−フェニルプロピル)スピロ〔ナフタレン−2(1H),2′−ピペリジン〕 塩酸塩]
[1]
  % inhibition rate (45Ca uptake): 92%

## COc1ccc2c(c1)CCC1(CCCCN1CCOc1ccccc1)C2 (centres unmarked) [実施例5−10, 3,4−ジヒドロ−6−メトキシ−1′−(2−フェノキシエチル)スピロ〔ナフタレン−2(1H),2′−ピペリジン〕 塩酸塩]
[2]
  IC50: 9.6 nM
[3]
  IC50: 830 nM
[1]
  % inhibition rate (45Ca uptake): 88%

## COc1ccc2c(c1)CCC1(CCCCN1CCCCN1C(=O)c3ccccc3C1=O)C2 (centres unmarked) [実施例5−11, 3,4−ジヒドロ−6−メトキシ−1′−(4−フタルイミドブチル)スピロ〔ナフタレン−2(1H),2′−ピペリジン〕 塩酸塩]
[2]
  IC50: 4.5 nM
[3]
  IC50: 500 nM

## COc1ccc2c(c1)CCC1(CCCCN1CCCC1CCN(Cc3ccccc3)CC1)C2 (centres unmarked) [実施例5−14, 3,4−ジヒドロ−6−メトキシ−1′−〔3−(1−フェニルメチルピペリジン−4−イル)プロピル〕スピロ〔ナフタレン−2(1H),2′−ピペリジン〕 2塩酸塩]
[2]
  IC50: 11 nM
[3]
  IC50: 180 nM
[1]
  % inhibition rate (45Ca uptake): 74%

## COc1cccc(N2CCN(CCN3CCCCC34CCc3cc(OC)ccc3C4)CC2)c1 (centres unmarked) [実施例7−1, 3,4−ジヒドロ−6−メトキシ−1’−〔2−(4−(3−メトキシフェニル)ピペラジン−1−イル)エチル〕スピロ〔ナフタレン−2(1H),2’−ピペリジン〕 2塩酸塩]
[2]
  IC50: 22 nM
[3]
  IC50: 4770 nM
[1]
  % inhibition rate (45Ca uptake): 90%

## COc1ccc2c(c1)CCC1(CCCCN1CCN1CCN(c3ccccc3Cl)CC1)C2 (centres unmarked) [実施例7−3, 1′−〔2−(4−(2−クロロフェニル)ピペラジン−1−イル)エチル〕−3,4−ジヒドロ−6−メトキシスピロ〔ナフタレン−2(1H),2′−ピペリジン〕 2塩酸塩]
[1]
  % inhibition rate (45Ca uptake): 95%

## COc1ccc2c(c1)CCC1(CCCCN1CCN1CCN(c3ccc(F)cc3)CC1)C2 (centres unmarked) [実施例7−5, 1′−〔2−(4−(4−フルオロフェニル)ピペラジン−1−イル)エチル〕−3,4−ジヒドロ−6−メトキシスピロ〔ナフタレン−2(1H),2′−ピペリジン〕 2塩酸塩]
[2]
  IC50: 30 nM
[3]
  IC50: 3350 nM
[1]
  % inhibition rate (45Ca uptake): 87%

## COc1ccc2c(c1)CCC1(CCCCN1CCN1CCN(c3cccc(C(F)(F)F)c3)CC1)C2 (centres unmarked) [実施例7−6, 1′−〔2−(4−(3−トリフルオロメチルフェニル)ピペラジン−1−イル)エチル〕−3,4−ジヒドロ−6−メトキシスピロ〔ナフタレン−2(1H),2′−ピペリジン〕 2塩酸塩]
[1]
  % inhibition rate (45Ca uptake): 106%

## COc1ccc2c(c1)CCC1(CCCCN1CCN1CCC(c3ccccc3)CC1)C2 (centres unmarked) [実施例7−9, 3,4−ジヒドロ−6−メトキシ−1′−〔2−(4−フェニルピペリジン−1−イル)エチル〕スピロ〔ナフタレン−2(1H),2′−ピペリジン〕 2塩酸塩]
[1]
  % inhibition rate (45Ca uptake): 109%

## CCCN1CCCCC12CCc1cc(OCc3ccccc3)ccc1C2 (centres unmarked) [実施例9−1, 3,4−ジヒドロ−6−フェニルメトキシ−1’−プロピルスピロ〔ナフタレン−2(1H),2’−ピペリジン〕 塩酸塩]
[4]; [5]
  IC50: 280 nM

## CCCN1CCCCC12CCc1cc(OCc3ccccc3Cl)ccc1C2 (centres unmarked) [実施例9−6, 6−(2−クロロフェニルメトキシ)−3,4−ジヒドロ−1′−プロピルスピロ〔ナフタレン−2(1H),2′−ピペリジン〕 塩酸塩]
[4]; [5]
  IC50: 2510 nM

## CCCN1CCCCC12CCc1cc(OCc3cccc(Cl)c3)ccc1C2 (centres unmarked) [実施例9−7, 6−(3−クロロフェニルメトキシ)−3,4−ジヒドロ−1′−プロピルスピロ〔ナフタレン−2(1H),2′−ピペリジン〕 塩酸塩]
[2]
  IC50: 700 nM
[3]
  IC50: 59 nM
[4]; [5]
  IC50: 1630 nM

## CCCN1CCCCC12CCc1cc(OCc3ccc(Cl)cc3)ccc1C2 (centres unmarked) [実施例9−8, 6−(4−クロロフェニルメトキシ)−3,4−ジヒドロ−1′−プロピルスピロ〔ナフタレン−2(1H),2′−ピペリジン〕 塩酸塩]
[2]
  IC50: 180 nM
[3]
  IC50: 35 nM

## CCCN1CCCCC12CCc1cc(OCc3cccc(C#N)c3)ccc1C2 (centres unmarked) [実施例9−9, 6−(3−シアノフェニルメトキシ)−3,4−ジヒドロ−1′−プロピルスピロ〔ナフタレン−2(1H),2′−ピペリジン〕 塩酸塩]
[2]
  IC50: 280 nM
[3]
  IC50: 62 nM

## CCCN1CCCCC12CCc1cc(OCCc3ccccc3)ccc1C2 (centres unmarked) [実施例9−16, 3,4−ジヒドロ−6−(2−フェニルエトキシ)−1′−プロピルスピロ〔ナフタレン−2(1H),2′−ピペリジン〕 2塩酸塩]
[4]; [5]
  IC50: 590 nM

## CCCN1CCCCC12CCc1cc(OCc3ccccc3C)ccc1C2 (centres unmarked) [実施例9−18, 3,4−ジヒドロ−6−(2−メチルフェニルメトキシ)−1′−プロピルスピロ〔ナフタレン−2(1H),2′−ピペリジン〕 塩酸塩]
[4]; [5]
  IC50: 1490 nM

## CCCN1CCCCC12CCc1cc(OCc3ccccc3F)ccc1C2 (centres unmarked) [実施例9−19, 6−(2−フルオロフェニルメトキシ)−3,4−ジヒドロ−1′−プロピルスピロ〔ナフタレン−2(1H),2′−ピペリジン〕 塩酸塩]
[2]
  IC50: 800 nM
[3]
  IC50: 90 nM
[4]; [5]
  IC50: 890 nM

## CCCN1CCCCC12CCc1cc(OCc3ccccc3C#N)ccc1C2 (centres unmarked) [実施例9−20, 6−(2−シアノフェニルメトキシ)−3,4−ジヒドロ−1′−プロピルスピロ〔ナフタレン−2(1H),2′−ピペリジン〕 塩酸塩]
[2]
  IC50: 320 nM
[3]
  IC50: 54 nM

## CCCN1CCCCC12CCc1cc(OCc3ccc(F)cc3)ccc1C2 (centres unmarked) [実施例9−21, 6−(4−フルオロフェニルメトキシ)−3,4−ジヒドロ−1′−プロピルスピロ〔ナフタレン−2(1H),2′−ピペリジン〕 塩酸塩]
[2]
  IC50: 340 nM
[3]
  IC50: 97 nM
[4]; [5]
  IC50: 680 nM

## CCCN1CCCCC12CCc1cc(OCc3ccc(Cl)cc3Cl)ccc1C2 (centres unmarked) [実施例9−22, 6−(2,4−ジクロロフェニルメトキシ)−3,4−ジヒドロ−1′−プロピルスピロ〔ナフタレン−2(1H),2′−ピペリジン〕 塩酸塩]
[2]
  IC50: 190 nM
[3]
  IC50: 67 nM

## CCCN1CCCCC12CCc1cc(OCc3ccccc3OC)ccc1C2 (centres unmarked) [実施例9−23, 3,4−ジヒドロ−6−(2−メトキシフェニルメトキシ)−1′−プロピルスピロ〔ナフタレン−2(1H),2′−ピペリジン〕 塩酸塩]
[4]; [5]
  IC50: 2830 nM

## NC(=O)CN1CCCCC12CCc1cc(OCc3ccc(F)cc3)ccc1C2 (centres unmarked) [実施例9−32, {6−(4−フルオロフェニルメトキシ−3,4−ジヒドロスピロ〔ナフタレン−2(1H),2′−ピペリジン〕}−1′−イルアセトアミド 塩酸塩]
[4]; [5]
  IC50: 530 nM

## CCCN1CCCCC12CCc1cc(OCc3ccsc3)ccc1C2 (centres unmarked) [実施例9−45, 3,4−ジヒドロ−1′−プロピル−6−(3−チエニルメトキシ)スピロ〔ナフタレン−2(1H),2′−ピペリジン〕 塩酸塩]
[4]
  IC50: 66 nM

## COc1ccc2c(c1)CC[C@@]1(CCCCN1CCN1CCN(c3cccc(C(F)(F)F)c3)CC1)C2 [実施例30−2, (S)−(−)−1’−〔2−4−(3−トリフルオロメチルフェニル)ピペラジン−1−イル)エチル〕−3,4−ジヒドロ−6−メトキシスピロ〔ナフタレン−2(1H),2’−ピペリジン〕 2塩酸塩]
[2]
  IC50: 9.5 nM
[3]
  IC50: 280 nM
